Results as given in ChEMBL document CHEMBL1143099, “Synthesis and SAR of potent and orally bioavailable tert-butylpyrrolidine archetype derived melanocortin subtype-4 receptor modulators” (Bioorg Med Chem Lett, 2008).

Assays:
Melanocortin receptor 4 [1] = biological target: T1, Melanocortin receptor 4 (Homo sapiens, UniProt P32245); test: Displacement of [125I]NDP-alpha-MSH from human MC4R expressed in CHO cells; type: cell-based
Melanocortin receptor 4 [2] = biological target: T1, Melanocortin receptor 4; test: Agonist activity at human MC4R expressed in CHO cells assessed as cAMP release; type: functional, cell-based
Melanocortin receptor 4 [3] = biological target: T1, Melanocortin receptor 4; test: Agonist activity at human MC4R expressed in CHO cells assessed as cAMP release relative to alpha-MSH; type: functional, cell-based
[4] = Plasma clearance in rat at 4 mg/kg, po; type: ADME, organism-based; parameters: dose 4 mg/kg, route oral
[5] = Binding affinity to human MC1bR
Melanocortin receptor 3 [6] = biological target: T2, Melanocortin receptor 3 (Homo sapiens, UniProt P41968); test: Binding affinity to human MC3R
T2 sequence (P41968 whole entry): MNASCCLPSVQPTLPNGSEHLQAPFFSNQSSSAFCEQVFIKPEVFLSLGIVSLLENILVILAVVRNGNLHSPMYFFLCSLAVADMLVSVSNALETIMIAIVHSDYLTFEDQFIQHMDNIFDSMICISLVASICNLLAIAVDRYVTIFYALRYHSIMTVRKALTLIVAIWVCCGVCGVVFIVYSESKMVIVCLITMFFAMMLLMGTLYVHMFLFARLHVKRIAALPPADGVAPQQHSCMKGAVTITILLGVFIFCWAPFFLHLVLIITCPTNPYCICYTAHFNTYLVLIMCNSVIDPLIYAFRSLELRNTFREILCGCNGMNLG

Melanocortin receptor 5 [7] = biological target: T3, Melanocortin receptor 5 (Homo sapiens, UniProt P33032); test: Binding affinity to human MC5R
T3 sequence (P33032 whole entry): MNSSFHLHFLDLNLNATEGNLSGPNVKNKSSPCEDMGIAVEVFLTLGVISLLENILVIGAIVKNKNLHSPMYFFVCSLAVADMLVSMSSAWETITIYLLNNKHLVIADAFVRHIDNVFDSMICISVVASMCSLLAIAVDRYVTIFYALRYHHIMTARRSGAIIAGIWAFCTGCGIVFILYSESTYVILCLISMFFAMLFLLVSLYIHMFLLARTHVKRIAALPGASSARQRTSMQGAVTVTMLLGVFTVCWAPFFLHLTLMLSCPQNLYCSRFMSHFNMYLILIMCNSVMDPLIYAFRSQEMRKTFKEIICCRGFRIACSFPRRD

Melanocortin receptor 5 [8] = biological target: T3, Melanocortin receptor 5; test: Agonist activity at human MC5R expressed in CHO cells assesses as cAMP release; type: functional, cell-based
[9] = Agonist activity at human MC1bR expressed in CHO cells assessed as cAMP release at 10 uM relative to alpha-MSH; type: functional
Melanocortin receptor 3 [10] = biological target: T2, Melanocortin receptor 3; test: Agonist activity at human MC3R expressed in CHO cells assessed as cAMP release at 10 uM relative to alpha-MSH; type: functional, cell-based
Melanocortin receptor 5 [11] = biological target: T3, Melanocortin receptor 5; test: Agonist activity at human MC5R expressed in CHO cells assessed as cAMP release at 10 uM relative to alpha-MSH; type: functional, cell-based
[12] = Oral bioavailability in Sprague-Dawley rat at 4 mg/kg; type: ADME, organism-based; settings: in vivo
Melanocortin receptor 4 [13] = biological target: T1, Melanocortin receptor 4; test: Agonist activity at human MC4R expressed in CHO cells assessed as cAMP release at 10 uM relative to alpha-MSH; type: functional, cell-based
Melanocortin receptor 4 [14] = biological target: T4, Melanocortin receptor 4 (Rattus norvegicus, UniProt P70596); test: Binding affinity to rat MC4R
T4 sequence (P70596 whole entry): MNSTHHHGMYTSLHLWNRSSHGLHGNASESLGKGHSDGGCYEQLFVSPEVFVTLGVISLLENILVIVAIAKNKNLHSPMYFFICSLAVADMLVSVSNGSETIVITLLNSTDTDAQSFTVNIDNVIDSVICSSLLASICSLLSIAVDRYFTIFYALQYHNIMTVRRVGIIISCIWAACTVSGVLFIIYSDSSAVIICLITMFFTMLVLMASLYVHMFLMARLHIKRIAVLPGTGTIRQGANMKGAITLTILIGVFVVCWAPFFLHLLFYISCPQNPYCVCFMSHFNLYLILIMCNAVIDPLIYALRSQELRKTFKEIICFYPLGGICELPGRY

[15] = biological target: Melanocortin receptor 4 (Rattus norvegicus) (UniProt P70596); test: Agonist activity at rat MC4R expressed in CHO cells assessed as cAMP release at 10 uM relative to alpha-MSH; type: functional, cell-based
Chain of Melanocortin receptor 4 (Rattus norvegicus) (P70596 whole entry): as above

Homo sapiens [16] = species: Homo sapiens; test: Selectivity for human MC4R over human MC3R
Homo sapiens [17] = species: Homo sapiens; test: Selectivity for human MC4R over human MC1bR
[18] = Agonist activity at human MC1bR expressed in CHO cells assessed as cAMP release; type: functional, cell-based
Melanocortin receptor 3 [19] = biological target: T2, Melanocortin receptor 3; test: Agonist activity at human MC3R expressed in CHO cells assessed as cAMP release; type: functional, cell-based
Melanocortin receptor 4 [20] = biological target: T4, Melanocortin receptor 4; test: Agonist activity at rat MC4R expressed in CHO cells assessed as cAMP release; type: functional, cell-based

T1 sequence (P32245 whole entry): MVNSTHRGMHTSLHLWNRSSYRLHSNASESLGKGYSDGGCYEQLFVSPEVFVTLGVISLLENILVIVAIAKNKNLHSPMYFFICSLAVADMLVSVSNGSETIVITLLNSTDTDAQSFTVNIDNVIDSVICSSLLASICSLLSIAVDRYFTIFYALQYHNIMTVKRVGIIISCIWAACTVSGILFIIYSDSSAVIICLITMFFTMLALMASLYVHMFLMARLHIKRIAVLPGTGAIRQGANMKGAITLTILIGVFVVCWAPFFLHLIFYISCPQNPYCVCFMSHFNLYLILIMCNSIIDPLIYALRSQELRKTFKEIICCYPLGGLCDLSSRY

IC50 (Melanocortin receptor 4 [1]) [µM]	EC50 (Melanocortin receptor 4 [2]) [µM]	%max (Melanocortin receptor 4 [3]) [%]	CL/F [4] [L/h/kg]	IC50 [5] [µM]	IC50 (Melanocortin receptor 3 [6]) [µM]	IC50 (Melanocortin receptor 5 [7]) [µM]	EC50 (Melanocortin receptor 5 [8]) [µM]	Activity (Melanocortin receptor 3 [10]) [%]	Activity (Melanocortin receptor 5 [11]) [%]	bioavailability [12] [%]	SMILES	Activity [9] [%]	further results
0.0762	0.12	47	2.26	6.59	12.2	0.675	1.23	16	35	15	CC[C@H](NC(C)=O)c1cc(Cl)ccc1C1CCN(C(=O)[C@@H]2CN(C(C)(C)C)C[C@H]2c2ccc3ccccc3c2)CC1	10	–
0.64	0.565	83	–	–	–	–	–	–	–	–	CC[C@H](NC(C)=O)c1cc(Cl)ccc1C1CCN(C(=O)[C@H]2CN(C(C)(C)C)C[C@@H]2c2ccc(F)cc2F)CC1	–	–
0.0033	–	–	0.684	20	4.29	0.245	1.6	5	10	30.3	CC[C@H](NC(C)=O)c1cc(Cl)ccc1C1CCN(C(=O)[C@H]2CN(C(C)(C)C)C[C@@H]2c2ccc(Cl)cc2Cl)CC1	3	Activity (Melanocortin receptor 4 [13]): 1%; IC50 (Melanocortin receptor 4 [14]): 0.0005 µM; Activity [15]: 6%; Ratio IC50 (Homo sapiens [16]): > 1000; Ratio IC50 (Homo sapiens [17]): > 6000
0.0179	0.156	48	–	–	–	–	–	–	–	–	CC[C@H](NC(C)=O)c1cc(Cl)ccc1C1CCN(C(=O)[C@@H]2CN(C(C)(C)C)C[C@H]2c2ccc(Cl)cc2Cl)CC1	–	–
0.216	0.215	84	–	–	–	–	–	–	–	–	CC[C@H](NC(C)=O)c1cc(Cl)ccc1C1CCN(C(=O)[C@@H]2CN(C(C)(C)C)C[C@H]2c2ccc(F)cc2Cl)CC1	–	–
0.528	1.92	57	–	–	–	–	–	–	–	–	CC[C@H](NC(C)=O)c1cc(Cl)ccc1C1CCN(C(=O)[C@H]2CN(C(C)(C)C)C[C@@H]2c2ccc3ccccc3c2)CC1	–	–
0.0227	0.0888	99	–	–	–	–	–	–	–	–	CC[C@H](NC(C)=O)c1cc(Cl)ccc1C1CCN(C(=O)[C@@H]2CN(C(C)(C)C)C[C@H]2c2ccc(C(F)(F)F)cc2F)CC1	–	–
0.004	0.0021	100	0.438	0.695	1.05	0.0653	0.102	88	88	24.7	CC[C@H](NC(C)=O)c1cc(Cl)ccc1C1CCN(C(=O)[C@@H]2CN(C(C)(C)C)C[C@H]2c2ccc(Br)cc2F)CC1	57	IC50 (Melanocortin receptor 4 [14]): 0.0017 µM; EC50 [18]: 0.274 µM; EC50 (Melanocortin receptor 3 [19]): 0.0974 µM; EC50 (Melanocortin receptor 4 [20]): 0.0005 µM; Activity [15]: 94%
0.0822	–	–	–	–	–	–	–	–	–	–	CC[C@H](NC(C)=O)c1cc(Cl)ccc1C1CCN(C(=O)[C@H]2CN(C(C)(C)C)C[C@@H]2c2ccc(F)cc2Cl)CC1	–	Activity (Melanocortin receptor 4 [13]): 10%
0.0112	0.0046	100	3.98	0.312	2.96	0.205	0.167	91	101	3.8	CC[C@H](NC(C)=O)c1cc(Cl)ccc1C1CCN(C(=O)[C@@H]2CN(C(C)(C)C)C[C@H]2c2ccc(OC)cc2F)CC1	–	EC50 (Melanocortin receptor 3 [19]): 0.157 µM
0.101	3.7	50	–	–	–	–	–	–	–	–	CC[C@H](NC(C)=O)c1cc(Cl)ccc1C1CCN(C(=O)[C@H]2CN(C(C)(C)C)C[C@@H]2c2cc(F)c(F)cc2F)CC1	–	–
0.0098	–	–	–	–	–	–	–	–	–	–	CC[C@H](NC(C)=O)c1cc(Cl)ccc1C1CCN(C(=O)[C@H]2CN(C(C)(C)C)C[C@@H]2c2ccc(C(F)(F)F)cc2F)CC1	–	Activity (Melanocortin receptor 4 [13]): 5%
0.0041	0.0134	33	0.547	174	2.95	0.28	0.455	38	30	34.3	CC[C@H](NC(C)=O)c1cc(Cl)ccc1C1CCN(C(=O)[C@H]2CN(C(C)(C)C)C[C@@H]2c2ccc(Br)cc2F)CC1	33	IC50 (Melanocortin receptor 4 [14]): 0.0015 µM; EC50 [18]: 1.06 µM; EC50 (Melanocortin receptor 3 [19]): 0.917 µM; EC50 (Melanocortin receptor 4 [20]): 0.0103 µM; Activity [15]: 44%
0.128	0.13	93	–	–	–	–	–	–	–	–	CC[C@H](NC(C)=O)c1cc(Cl)ccc1C1CCN(C(=O)[C@@H]2CN(C(C)(C)C)C[C@H]2c2cc(F)c(F)cc2F)CC1	–	–
0.0078	–	–	0.336	16.4	3.78	0.45	–	8	11	28	CC[C@H](NC(C)=O)c1cc(Cl)ccc1C1CCN(C(=O)[C@H]2CN(C(C)(C)C)C[C@@H]2c2ccc(C(F)(F)F)cc2)CC1	5	Activity (Melanocortin receptor 4 [13]): 1%; IC50 (Melanocortin receptor 4 [14]): 0.001 µM; Activity [15]: 15%
0.0372	0.245	34	–	–	–	–	–	–	–	–	CC[C@H](NC(C)=O)c1cc(Cl)ccc1C1CCN(C(=O)[C@H]2CN(C(C)(C)C)C[C@@H]2c2ccc(OC)cc2F)CC1	–	–
0.0062	0.0028	97	0.684	1.34	1.49	0.129	0.372	92	98	24.3	CC[C@H](NC(C)=O)c1cc(Cl)ccc1C1CCN(C(=O)[C@@H]2CN(C(C)(C)C)C[C@H]2c2ccc(Cl)cc2F)CC1	57	EC50 [18]: 0.905 µM; EC50 (Melanocortin receptor 3 [19]): 0.25 µM; EC50 (Melanocortin receptor 4 [20]): 0.0009 µM; Activity [15]: 106%
0.0132	0.111	45	–	–	–	–	–	–	–	–	CC[C@H](NC(C)=O)c1cc(Cl)ccc1C1CCN(C(=O)[C@H]2CN(C(C)(C)C)C[C@@H]2c2ccc(Cl)cc2F)CC1	–	–
0.0281	0.0672	90	–	–	–	–	–	–	–	–	CC[C@H](NC(C)=O)c1cc(Cl)ccc1C1CCN(C(=O)[C@@H]2CN(C(C)(C)C)C[C@H]2c2ccc(C(F)(F)F)cc2)CC1	–	–
0.07	0.0179	108	–	–	–	–	–	–	–	–	CC[C@H](NC(C)=O)c1cc(Cl)ccc1C1CCN(C(=O)[C@@H]2CN(C(C)(C)C)C[C@H]2c2ccc(F)cc2F)CC1	–	–
